Patent US12084416B2, “Substituted sulfonylurea derivatives” (Zydus Lifesciences Limited, priority 2019, dated 2024)

test system: IL-1β; assay: In-vitro IL-1β inhibition assay in PMA-differentiated, LPS-primed, ATP-stimulated THP1 cells; type: cell-based; conditions: Homo sapiens, THP-1, read-out: IC50 (nM), invitro IL-1β inhibitory activity
Experimental: THP1 monocytes were differentiated with PMA (100 ng/mL) and incubated at 37 deg C. for 20 hrs in presence of 5% CO2. 2×10^5 differentiated cells were plated per well of 96 well tissue culture plates. The cells were primed using 500 ng/mL Lipopolysaccharide and incubating for 4 h under the same condition. The cells were then treated with various concentrations of the compounds for 30 min followed by treatment with 5 mM ATP for 1 hr. The supernatants were collected and analyzed by IL-1b (Mabtech Cat #3415-1H-20) or TNF-α (Mabtech; Cat #3510-1H-20) detection kit. The data were analyzed using GraphPad Prism V7.0. Dose Response Curve (DRC) was constructed to determine the IC50 value by fitting percentage […] data to the GraphPad Prism using nonlinear regression analysis.

Row | Structure (SMILES) | IC50
1 | O=C(Nc1c2c(cc3c1CCC3)CCC2)NS(=O)(=O)/C=C/[C@H]1CCCN1C1CCSCC1 [Example 139, Sodium(R,E)-((1,2,3,5,6,7-hexahydro-s-indacen-4-yl)carbamoyl)((2-(1-(tetrahydro-2H-thiopyran-4-yl)pyrrolidin-2-yl)vinyl)sulfonyl)amide] | 21 nM
2 | CN1CCC[C@@]1(C)/C=C/S(=O)(=O)NC(=O)Nc1c2c(cc3c1CCC3)CCC2 [Example 144, sodium(S,E)-((2-(1,2-dimethylpyrrolidin-2-yl)vinyl)sulfonyl)((1,2,3,5,6,7-hexahydro-s-indacen-4-yl)carbamoyl)amide] | 8.6 nM
3 | CC(C)(C)OC(=O)N1CCC1(C)/C=C/S(=O)(=O)NC(=O)Nc1c2c(cc3c1CCC3)CCC2 (stereo not drawn) [Example 147, tert-butyl(E)-2-(2-(N-((1,2,3,5,6,7-hexahydro-s-indacen-4-yl)carbamoyl)sulfamoyl)vinyl)-2-methylazetidine-1-carboxylate] | 11 nM
4 | CC[C@@]1(/C=C/S(=O)(=O)NC(=O)Nc2c3c(cc4c2CCC4)CCC3)CCCN1C(=O)OC(C)(C)C [Example 149, tert-butyl(S,E)-2-ethyl-2-(2-(N-((1,2,3,5,6,7-hexahydro-s-indacen-4-yl)carbamoyl)sulfamoyl)vinyl)pyrrolidine-1-carboxylate] | 11 nM
5 | CN1CCC[C@@]1(C)/C=C/S(=O)(=O)NC(=O)Nc1cc2c(c3c1CCC3)CCC2 [Example 153, (S,E)-2-(1,2-dimethylpyrrolidin-2-yl)-N-((1,2,3,6,7,8-hexahydro-as-indacen-4-yl)carbamoyl)ethene-1-sulfonamide] | 32 nM

same assay, conditions: Homo sapiens, THP-1; THP1 monocytes differentiated with PMA, primed with 500 ng/mL LPS, compound 30 min, 5 mM ATP 1 hr; IL-1β in supernatant; read-out: IC50 (nM), invitro IL-1β inhibitory activity

Row | Structure (SMILES) | IC50
6 | CC(=O)N1CCC[C@@H]1/C=C/S(=O)(=O)NC(=O)Nc1c2c(cc3c1CCC3)CCC2 [Example 8, (R,E)-2-(1-acetylpyrrolidin-2-yl)-N-((1,2,3,5,6,7-hexahydro-s-indacen-4-yl)carbamoyl)-ethene-1-sulfonamide] | 10.7 nM
7 | CC(C)(C)OC(=O)N1CCC[C@@H]1/C=C/S(=O)(=O)NC(=O)Nc1c2c(cc3c1CCC3)CCC2 [Example 10, tert-butyl (R,E)-2-(2-(N-((1,2,3,5,6,7-hexahydro-s-indacen-4-yl)carbamoyl)sulfamoyl)-vinyl)pyrrolidine-1-carboxylate] | 64 nM
8 | O=C(Nc1c2c(cc3c1CCC3)CCC2)NS(=O)(=O)/C=C/[C@H]1CCCN1S(=O)(=O)c1cccc(F)c1 [Example 13, (R,E)-2-(1-((3-fluorophenyl)sulfonyl)pyrrolidin-2-yl)-N-((1,2,3,5,6,7-hexahydro-s-indacen-4-yl)carbamoyl)ethenesulfonamide] | 9 nM
9 | O=C(Nc1c2c(cc3c1CCC3)CCC2)NS(=O)(=O)/C=C/[C@H]1CCCN1C(=O)c1cnccn1 [Example 14, (R,E)-N-((1,2,3,5,6,7-hexahydro-s-indacen-4-yl)carbamoyl)-2-(1-(pyrazine-2-carbonyl)pyrrolidin-2-yl)ethenesulfonamide] | 17 nM
10 | CCS(=O)(=O)N1CCC[C@@H]1/C=C/S(=O)(=O)NC(=O)Nc1c2c(cc3c1CCC3)CCC2 [Example 21, (R,E)-2-(1-(ethylsulfonyl)pyrrolidin-2-yl)-N-((1,2,3,5,6,7-hexahydro-s-indacen-4-yl)carbamoyl)ethene-1-sulfonamide] | 2.4 nM
11 | CS(=O)(=O)CCCN1CCC[C@@H]1/C=C/S(=O)(=O)NC(=O)Nc1c2c(cc3c1CCC3)CCC2 [Example 23, (R,E)-N-((1,2,3,5,6,7-hexahydro-s-indacen-4-yl)carbamoyl)-2-(1-(3-(methylsulfonyl)propyl)pyrrolidin-2-yl)ethenesulfonamide] | 14 nM
12 | O=C(Nc1c2c(cc3c1CCC3)CCC2)NS(=O)(=O)/C=C/[C@@H]1CCCN1S(=O)(=O)c1cccnc1 [Example 63, (S,E)-N-((1,2,3,5,6,7-hexahydro-s-indacen-4-yl)carbamoyl)-2-(1-(pyridin-3-ylsulfonyl)-pyrrolidin-2-yl)ethenesulfonamide] | 8 nM
13 | O=C(Nc1c2c(cc3c1CCC3)CCC2)NS(=O)(=O)/C=C/C1CCOCC1 [Example 71, (E)-N-((1,2,3,5,6,7-hexahydro-s-indacen-4-yl)carbamoyl)-2-(tetrahydro-2H-pyran-4-yl)ethenesulfonamide] | 87 nM

Results, then the compound that gave them:

Row | IC50 | Structure (SMILES)
14 | 8.5 nM | CS(=O)(=O)N1CCCC(/C=C/S(=O)(=O)NC(=O)Nc2c3c(cc4c2CCC4)CCC3)C1 (stereo not drawn) [Example 84, (E)-N-((1,2,3,5,6,7-hexahydro-s-indacen-4-yl)carbamoyl)-2-(1-(methylsulfonyl)piperidin-3-yl)ethenesulfonamide]
15 | 16 nM | O=C(Nc1c2c(cc3c1CCC3)CCC2)NS(=O)(=O)/C=C/[C@@H]1CCCN1S(=O)(=O)c1ccc(Cl)s1 [Example 90, (S,E)-2-(1-((5-chlorothiophen-2-yl)sulfonyl)pyrrolidin-2-yl)-N-((1,2,3,5,6,7-hexahydro-s-indacen-4-yl)carbamoyl)ethenesulfonamide]
16 | 2.9 nM | O=C(Nc1c2c(cc3c1CCC3)CCC2)NS(=O)(=O)/C=C/[C@@H]1CCCN1S(=O)(=O)Cc1ccccc1 [Example 91, (S,E)-2-(1-(benzylsulfonyl)pyrrolidin-2-yl)-N-((1,2,3,5,6,7-hexahydro-s-indacen-4-yl)carbamoyl)ethenesulfonamide]
17 | 70 nM | O=C(Nc1c2c(cc3c1CCC3)CCC2)NS(=O)(=O)/C=C/C1CCCCN1 (stereo not drawn) [Example 100, (E)-N-((1,2,3,5,6,7-hexahydro-s-indacen-4-yl)carbamoyl)-2-(piperidin-2-yl)ethene-1-sulfonamide]
18 | 61 nM | C[C@@]1(/C=C/S(=O)(=O)NC(=O)Nc2c3c(cc4c2CCC4)CCC3)CCCN1 [Example 105, (S,E)-N-((1,2,3,5,6,7-hexahydro-s-indacen-4-yl)carbamoyl)-2-(2-methylpyrrolidin-2-yl)ethene-1-sulfonamide]
19 | 4.3 nM | CC(C)(C)OC(=O)N1CCC[C@@]1(C)/C=C/S(=O)(=O)NC(=O)Nc1c2c(cc3c1CCC3)CCC2 [Example 111, tert-butyl(S,E)-2-(2-(N-((1,2,3,5,6,7-hexahydro-s-indacen-4-yl)carbamoyl)sulfamoyl)vinyl)-2-methylpyrrolidine-1-carboxylate]
20 | 16.4 nM | CC(=O)N1CCC1/C=C/S(=O)(=O)NC(=O)Nc1c2c(cc3c1CCC3)CCC2 (stereo not drawn) [Example 125, (E)-2-(1-acetylazetidin-2-yl)-N-((1,2,3,5,6,7-hexahydro-s-indacen-4-yl)carbamoyl)ethene-1-sulfonamide]
21 | 5.6 nM | C=CCN1CCC[C@H]1/C=C/S(=O)(=O)NC(=O)Nc1c2c(cc3c1CCC3)CCC2 [Example 127, (S,E)-2-(1-allylpyrrolidin-2-yl)-N-((1,2,3,5,6,7-hexahydro-s-indacen-4-yl)carbamoyl)ethene-1-sulfonamide]
22 | 5.9 nM | C[C@@]1(/C=C/S(=O)(=O)NC(=O)Nc2c3c(cc4c2CCC4)CCC3)CCCN1S(=O)(=O)C1CC1 [Example 129, (S,E)-2-(1-(cyclopropylsulfonyl)-2-methylpyrrolidin-2-yl)-N-((1,2,3,5,6,7-hexahydro-s-indacen-4-yl)carbamoyl)ethene-1-sulfonamide]
23 | 16 nM | CC(C)(C)OC(=O)N1CC2CC(N3CCC[C@@H]3/C=C/S(=O)(=O)NC(=O)Nc3c4c(cc5c3CCC5)CCC4)CC2C1 (stereo partly drawn) [Example 131, tert-butyl 5-((R)-2-((E)-2-(N-((1,2,3,5,6,7-hexahydro-s-indacen-4-yl)carbamoyl)sulfamoyl)vinyl)pyrrolidin-1-yl)hexahydrocyclopenta[c]pyrrole-2 (1H)-carboxylate]

test system: IL-1β; assay: In-vivo LPS and ATP induced IL-1β assay; conditions: Mus musculus, 2.5 h; Dose 10 mpk, po; female C57 mice; serum IL-1β by ELISA; read-out: % IL-1β inhibition in LPS + ATP challenged C57 mice
Experimental: All the animal experiments were carried out in female rats and mice, bred in-house. Animals were housed in groups of 6 animals per cage, for a week, in order to habituate them to vivarium conditions (25 f 4° C., 60-65% relative humidity, 12:12 h light:dark cycle, with lights on at 7.30 am). All the animal experiments were carried out according to the internationally valid guidelines following approval by the ‘Zydus Research Center animal ethical committee’.
Female C57 mice (6-8 weeks) received intraperitoneal injection of 50 μg/mouse of lipopolysaccharide (LPS) in PBS. Animals were treated immediately with the test compounds or the vehicle. After 2 h of LPS injection, animals were administered with ATP at 12.5 mg/mouse dissolved in PBS via intraperitoneal route. After 30 minutes of ATP injection, serum was collected for IL-1β estimation by ELISA.

Row | Structure (SMILES) | inhibition in vivo at 10 mg/kg
24 | O=C(Nc1c2c(cc3c1CCC3)CCC2)NS(=O)(=O)/C=C/[C@H]1CCCN1CC1CC1 [Example 5, (R,E)-2-(1-(cyclopropylmethyl)pyrrolidin-2-yl)-N-((1,2,3,5,6,7-hexahydro-s-indacen-4-yl)carbamoyl)ethene-1-sulfonamide] | 70%
25 | CC(C)N1CCC[C@@H]1/C=C/S(=O)(=O)NC(=O)Nc1c2c(cc3c1CCC3)CCC2 [Example 22, (R,E)-N-((1,2,3,5,6,7-hexahydro-s-indacen-4-yl)carbamoyl)-2-(1-isopropylpyrrolidin-2-yl)ethene-1-sulfonamide] | 83%
26 | O=C(Nc1c2c(cc3c1CCC3)CCC2)NS(=O)(=O)/C=C/[C@H]1CCCN1C1CCSCC1 [Example 40, (R,E)-N-((1,2,3,5,6,7-hexahydro-s-indacen-4-yl)carbamoyl)-2-(1-(tetrahydro-2H-thiopyran-4-yl)pyrrolidin-2-yl)ethene-1-sulfonamide] | 86%
27 | C[C@]1(/C=C/S(=O)(=O)NC(=O)Nc2c3c(cc4c2CCC4)CCC3)CCCN1S(C)(=O)=O [Example 55, (R,E)-N-((1,2,3,5,6,7-hexahydro-s-indacen-4-yl)carbamoyl)-2-(2-methyl-1-(methylsulfonyl)-pyrrolidin-2-yl)ethene-1-sulfonamide] | 82.5%
